{"source": "patent US12629401B2", "about": "“Method for preparing ginseng extract enriched with rare ginsenosides and applications thereof” (priority 2023, dated 2026)", "test_system": "SD1347 nematodes", "assay": "Mitochondrial health test: muscle fragmentation score by confocal microscopy", "assay_type": "in vivo, C. hidradenitis elegans nematodes", "conditions": "100 μg/mL JadeAging, 11.4 μg/mL urolithin A", "excerpt": "Skeletal sarcopenia is an age-related loss of muscle and strength. Muscle mitochondrial dysfunction is observed at the onset of skeletal sarcopenia, followed by alterations in skeletal muscle segmental architecture, ultimately leading to decreased movement. In recent years, clinical studies have shown that urolithin A improves mitochondrial health and alleviates muscle decline due to aging. In the present study, the fluorescently labeled myocyte nuclei and mitochondria of […] were used to assess whether JadeAging could ameliorate age-related dysfunction.\nMETHODS: SD1347 C. hidradenitis elegans nematodes were treated with JadeAging and fluorescently labeled with muscle nuclei and mitochondria, and muscle and mitochondrial health were assessed using confocal microscopy on days 2, 9, and 12 of the adult stage of C. hidradenitis elegans. […]\nMaximum intensity projected confocal images of adult […] animals on days 2, 9 and 12 are shown in FIG. 11, all images are from the “head” region. Healthy muscles, i.e., those of the blank group (VC group), are marked by arrows in the day 2 images and are uniformly streaked; those of the blank group (VC group) are marked by arrows in the day 12 images and show uneven fluorescence. […]", "data": [{"compound": "O=c1oc2cc(O)ccc2c2ccc(O)cc12", "note": "[urolithin A]", "values": [{"measurement": "protective effect against age-related skeletal muscle reduction (mean fragmentation scores)", "setting": "FIG. 13", "result": "significant protective effect"}, {"measurement": "mitochondrial health (change of fragmentation score distribution with age)", "setting": "days 2, 9, 12, FIG. 12", "result": "superior to that of the blank group (VC group)"}]}]}
